Data taken from paper PMC12543283, “TastepepAI: An artificial intelligence platform for taste peptide de novo design” (PLOS Computational Biology, 2025).
Values joined by “and” are separate entries in the source; they are usually repeats but may differ in a detail not shown here. Equal values may be shown once. Ends that are not written are not given here.

Tests used:
[1] = tested on: human pancreatic ductal epithelial cells (HPNE)
[2] = tested on: human embryonic kidney cells (HEK293T)
Description: The cytotoxicity of 73 synthetic peptides was evaluated using four human cell lines: human pancreatic ductal epithelial cells (HPNE), human embryonic kidney cells (HEK293T), human umbilical vein endothelial cells (HUVEC), and human bronchial epithelial cells (BEAS-2B). When cell density reached 70% confluence, the complete culture medium was replaced with serum-free maintenance medium, and peptides were added at a final concentration of 100 μM for 36 h. Control groups received only serum-free maintenance medium without peptides. Cell proliferation was assessed using the CCK-8 assay kit (Solarbio, CA1210) according to the manufacturer’s instructions.

[3] = tested on: human umbilical vein endothelial cells (HUVEC)
[4] = Electronic tongue analysis (Taste-Sensing System SA 402B); set-up: unit not given here; settings: reference solution 30 mM KCl + 0.3 mM tartaric acid as baseline, first measurement excluded; for Umami: sensor AAE; for Umami / Bitter / Sweet: detection threshold 0, room temperature; for Umami / Bitter / Sour / Salty: four replicates; for Sour: detection threshold -13, room temperature; for Salty: detection threshold -6, room temperature; for Sweet: measured five times
In short: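 Room-temperature electronic-tongue readings with five taste probes, calibrated against a reference of 30 mM KCl and 0.3 mM tartaric acid. Samples at 0.1 mg/mL and 1.0 mg/mL were measured four times, sweetness five times, and the first run was dropped. Detection cut-offs were sour −13, salty −6, others 0.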

[5] = tested on: human bronchial epithelial cells (BEAS-2B)

Substance | Average cell viability, HPNE [1] | Cell viability, HPNE, Data1 [1] | Cell viability, HPNE, Data2 [1] | Cell viability, HPNE, Data3 [1] | Average cell viability, HEK293T [2] | Cell viability, HEK293T, Data1 [2] | Cell viability, HEK293T, Data2 [2] | Cell viability, HEK293T, Data3 [2] | Average cell viability, HUVEC [3] | Cell viability, HUVEC, Data1 [3] | Cell viability, HUVEC, Data2 [3] | Cell viability, HUVEC, Data3 [3] | Umami ([4]; peptide 0.1 mg/mL) | Umami ([4]; peptide 1 mg/mL) | Bitter ([4]; sensor C00, peptide 0.1 mg/mL) | Bitter ([4]; sensor C00, peptide 1 mg/mL) | Sour ([4]; sensor CA0, peptide 0.1 mg/mL) | Sour ([4]; sensor CA0, peptide 1 mg/mL) | Salty ([4]; sensor CT0, peptide 0.1 mg/mL) | Salty ([4]; sensor CT0, peptide 1 mg/mL) | other results
LWGPVT [TaPep72] | 101.26 | 115.31 | 97.84 | 90.65 | 100.76 | 102.49 | 95.02 | 104.76 | 99.47 | 107.29 | 101.62 | 89.49 | 2.15 | -4.42 | 7.25 | 3.83 | -4.62 | 11.06 | -19.66 | 7.83 | Sweet ([4]; sensor GL1, peptide 0.1 mg/mL): 7.58; Sweet ([4]; sensor GL1, peptide 1 mg/mL): -5.31; Average cell viability, BEAS-2B [5]: 100.50; Cell viability, BEAS-2B, Data1 [5]: 118.74; Cell viability, BEAS-2B, Data2 [5]: 92.32; Cell viability, BEAS-2B, Data3 [5]: 90.43
NGDDEEG [TaPep7] | 99.30 | 92.35 | 93.04 | 112.51 | 95.11 | 96.15 | 94.73 | 94.45 | 105.24 | 113.68 | 110.16 | 91.88 | 1.28 | -5.11 | 7.41 | bitterness suppression and -0.45 | -2.86 | 11.92 | -21.22 | 9.19 | Sweet ([4]; sensor GL1, peptide 0.1 mg/mL): 6.98; Sweet ([4]; sensor GL1, peptide 1 mg/mL): -6.18; Average cell viability, BEAS-2B [5]: 102.56; Cell viability, BEAS-2B, Data1 [5]: 94.72; Cell viability, BEAS-2B, Data2 [5]: 111.17; Cell viability, BEAS-2B, Data3 [5]: 101.79
NNDDEES [TaPep50] | 98.30 | 106.02 | 107.52 | 81.36 | 101.39 | 105.62 | 98.99 | 99.56 | 105.59 | 101.94 | 108.73 | 106.09 | 2.11 | -3.90 | 7.18 | 4.27 | -4.45 | 9.63 | -22.53 | 3.54 | Sweet ([4]; sensor GL1, peptide 0.1 mg/mL): 7.42; Sweet ([4]; sensor GL1, peptide 1 mg/mL): -3.07; Average cell viability, BEAS-2B [5]: 104.39; Cell viability, BEAS-2B, Data1 [5]: 104.29; Cell viability, BEAS-2B, Data2 [5]: 103.89; Cell viability, BEAS-2B, Data3 [5]: 104.99
PPLENT [TaPep39] | 99.87 | 95.44 | 90.95 | 113.21 | 100.06 | 96.81 | 97.19 | 106.18 | 107.56 | 101.22 | 113.36 | 108.09 | 0.99 | -5.89 | 7.69 | 2.99 | -1.65 | 15.66 | -18.68 | 12.96 | Sweet ([4]; sensor GL1, peptide 0.1 mg/mL): 6.53; Sweet ([4]; sensor GL1, peptide 1 mg/mL): -7.82; Average cell viability, BEAS-2B [5]: 115.22; Cell viability, BEAS-2B, Data1 [5]: 118.05; Cell viability, BEAS-2B, Data2 [5]: 113.86; Cell viability, BEAS-2B, Data3 [5]: 113.76
PTELESD [TaPep41] | 95.94 | 86.16 | 113.91 | 87.75 | 106.18 | 94.54 | 110.54 | 113.47 | 103.09 | 108.17 | 102.98 | 98.11 | 1.88 | -3.94 | 7.34 | 3.91 | -3.84 | 9.16 | -20.79 | 2.54 | Sweet ([4]; sensor GL1, peptide 0.1 mg/mL): 8.41; Sweet ([4]; sensor GL1, peptide 1 mg/mL): -8.94; Average cell viability, BEAS-2B [5]: 110.80; Cell viability, BEAS-2B, Data1 [5]: 117.85; Cell viability, BEAS-2B, Data2 [5]: 114.36; Cell viability, BEAS-2B, Data3 [5]: 100.20
